According to PMC4278708, “A Convenient Method for the Synthesis of (Prop-2-Ynyloxy)Benzene Derivatives via Reaction with Propargyl Bromide, Their Optimization, Scope and Biological Evaluation” (PLoS ONE, 2014):
Values after ≈ are worked out from the molar mass of the structure shown. Read-outs that look alike come from different tables or passages of the source.

Columns and labels:
[1] = system: Staphylococcus aureus; experiment: Antibacterial activity, disc diffusion method; type: cell-based; conditions: for inhibition at 40 µg/mL / inhibition at 100 µg/mL / IC50: Staphylococcus aureus; for inhibition at 40 µg/mL: read-out: Staphylococcus aureus 40 ug/ml (percentage inhibition); for inhibition at 100 µg/mL: read-out: Staphylococcus aureus 100 ug/ml (percentage inhibition)
Description: (§1) Disc diffusion method was adopted to test the antibacterial activity of synthesized compounds 2a-10 against […] different bacterial strains. Ampiciline was used as positive control to check antibacterial activity of synthesized compounds. The bacterial strains employed were: Escherichia coli, Bacillus subtillus, Shigella flexneri, Staphylococcus aureus, Pseudomonas aeroginosa and Salmonella typhi.
(§2) Disc diffusion method was used for the determination of antibacterial activity. synthetic organic compounds were examined to evaluate their antibacterial potential against four different strains of bacteria i.e. Staphlococcus aureus (Gram + ive), Pseudomonas- aeroginosa (Gram−ive) and Escherichia coli (Gram−ive), Bacillus subtilis (Gram + ive), Salmonella typhi (Gram−ive) and Shigella flexneri (−ive). The synthetic organic compounds were dissolved in an appropriate solvent to get the solution of known concentration (5 µg/µl or 10 µg/µl). In order to prepare discs of different potencies known volume of extract/synthetic organic compound solution was applied on the discs, air dried and used. After preparation of the sterilized nutrient agar and nutrient broth medium, the sterilized nutrient agar medium was poured under aseptic conditions into sterile glass petri dishes/plates. A known volume of bacterial growth culture can also be poured on the surface of agar medium solidified in petri dishes. After inoculation petri plates were kept at room temperature for 15–30 minutes so that the poured medium is adsorbed. All the discs, including test sample, +ive and –ve controls were placed onto the inoculated nutrient agar medium solidified in petri dishes with the help of sterile forceps and incubated the petri plates at 37°C±2°C for 16–24 hours. Zone of inhibition was measured in mm using ordinary scale. Experiment was repeated three times to get the SD values.

[2] = system: Bacillus subtillus; experiment: Antibacterial activity, disc diffusion method; type: cell-based; conditions: for inhibition at 50 µg/mL / IC50 / inhibition at 100 µg/mL: Bacillus; for inhibition at 50 µg/mL: 50 ug/ml, read-out: Bacillus subtillus 50 ug/ml (percentage inhibition); for inhibition at 100 µg/mL: read-out: Bacillus subtillus 100 ug/ml (percentage inhibition)
Description: as §1, §2

[3] = target: urease enzyme (Canavalia ensiformis, UniProt P07374); experiment: biochemical; type: biochemical; conditions: for inhibition at 50 µg/mL: read-out: Percentage inhibition at 50 ug/mL; for inhibition at 100 µg/mL: read-out: Percentage inhibition at 100 ug/mL
Experimental: Antiurease activity of the synthesized compounds was determined by using the modified phenol-hypochlorite method. Varying concentrations were used to prepare the urease inhibition curve of Thiourea (a known inhibitor of Urease) in the reaction mixture. Phosphate buffer solution of pH 7 containing 1 unit of enzyme was added about 200 µl in the test tube which was followed by the addition of 230 µl of phosphate buffer and 20 µl of thiourea from a scrupulous stock solution for the particular concentration of thiourea in the reaction mixture respectively. Test sample solutions were added instead of thiourea solution in case of test samples. The reaction mixture were mixed and incubated at 25°C for 5 min. 400 µl of urea stock (20 mM) was added in each test tube. In order to allow the action of urease on urea, all the test tubes were incubated at 40°C.
Phenol hypochlorite reagent (1150 µl) was added after 10 min incubation at 40°C. Test tubes were again incubated at 56°C for 25 min. A blue coloured complex was formed in the reaction mixture. The samples were allowed to cool for 5 min and then their absorbance values were measured at 625 nm and the %age inhibition was calculated. Experiment was repeated three times to get the SD values.

[4] = Nitric oxide (NO) scavenging activity (sodium nitropruside / Griess reagent); conditions: for IC50: NO scavenging; for Percentage scavenging activity at 50 ug/ml / Percentage scavenging activity at 100 ug/ml: NO
Experimental: Solutions of known concentration were prepared by dissolving the synthesized compounds in appropriate solvents. A mixture of sample solution (20 µl), 10 mM sodium nitropruside solution (200 µl) and phosphate buffer of 7.4 pH (1780 µl) was taken in a dry test tube and the mixture was incubated at 37°C for 2 hours. 200 µl Griess reagent (0.3% Sulphanilic acid in glacial acetic acid, 0.1% Naphthyl ethylene diamine HCL (NED): Mixed equal volume of both solutions just before use) was added after the incubation period is over. After 20 min keeping the solution at room temperature, its absorbance at 528 nm was measured. Each sample was analyzed in triplicate. Positive control of any known antioxidant and control of all samples were run in parallel. Use of negative control was to calibrate the instrument. Sample blanks were also prepared in case if the samples were coloured. Correction in the absorbance values was made by subtracting the sample blank reading from the sample reading.

[5] = read-out: Staphylococcus aureus IC50 ug/ml
[6] = read-out: Bacillus subtillus IC50 ug/ml

Sequence of urease enzyme (P07374 whole entry, looked up): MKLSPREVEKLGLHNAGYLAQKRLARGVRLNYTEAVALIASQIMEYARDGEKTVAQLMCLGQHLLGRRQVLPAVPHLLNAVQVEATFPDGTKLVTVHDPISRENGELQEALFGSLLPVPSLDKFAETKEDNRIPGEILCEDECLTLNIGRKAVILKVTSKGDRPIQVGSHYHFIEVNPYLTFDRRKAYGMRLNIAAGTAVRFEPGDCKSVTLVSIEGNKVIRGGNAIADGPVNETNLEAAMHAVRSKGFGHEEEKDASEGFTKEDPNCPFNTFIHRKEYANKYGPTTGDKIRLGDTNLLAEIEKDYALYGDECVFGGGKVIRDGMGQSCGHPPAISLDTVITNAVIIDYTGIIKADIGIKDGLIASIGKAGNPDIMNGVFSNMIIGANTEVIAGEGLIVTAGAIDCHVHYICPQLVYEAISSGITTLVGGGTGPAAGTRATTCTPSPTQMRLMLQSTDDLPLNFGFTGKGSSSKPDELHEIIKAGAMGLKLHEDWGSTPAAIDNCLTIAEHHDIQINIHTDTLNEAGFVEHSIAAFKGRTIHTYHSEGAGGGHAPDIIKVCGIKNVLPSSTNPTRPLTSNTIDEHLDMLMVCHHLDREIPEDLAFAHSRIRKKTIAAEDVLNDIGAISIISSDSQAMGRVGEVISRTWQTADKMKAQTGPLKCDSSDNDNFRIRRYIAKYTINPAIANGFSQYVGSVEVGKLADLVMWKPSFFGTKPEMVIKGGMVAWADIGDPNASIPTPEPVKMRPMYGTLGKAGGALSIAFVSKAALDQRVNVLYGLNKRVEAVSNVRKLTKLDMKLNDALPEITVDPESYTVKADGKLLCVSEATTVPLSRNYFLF

2-bromo-4-methyl-N-(prop-2-ynyl)aniline [Compound 8b]
Staphylococcus aureus 40 ug/ml (percentage inhibition) ([1]; 40 ug/ml): 13.39±0.5%
Staphylococcus aureus 100 ug/ml (percentage inhibition) ([1]; 100 ug/ml): 36±0.8%
Bacillus subtillus 100 ug/ml (percentage inhibition) ([2]; 100 ug/ml): 43.8±0.35%
IC50 ([3]; urease): 98.2 µg/mL
Percentage inhibition at 50 ug/mL ([3]; urease, 50 ug/mL): 27±0.45%
Percentage inhibition at 100 ug/mL ([3]; urease, 100 ug/mL): 50.83±0.265%
IC50 [4]: 87.5 µg/mL
Percentage scavenging activity at 50 ug/ml [4]: 26.33±0.11%
Percentage scavenging activity at 100 ug/ml [4]: 57.98±0.21%

CC1(C)S[C@@H]2[C@H](NC(=O)[C@H](N)c3ccccc3)C(=O)N2[C@H]1C(=O)O [Ampicilline, reference compound]
inhibition at 40 µg/mL [1]: 29.9 ± 0.59%
inhibition at 100 µg/mL [1]: 73 ± 0.51%
IC50 ([1]; read-out: Staphylococcus aureus IC50): 76 µg/mL (≈ 218 µM)
inhibition at 50 µg/mL [2]: 9.9 ± 0.51%
IC50 ([2]; read-out: Bacillus subtillus IC50): 81 µg/mL (≈ 232 µM)

C#CCOc1ccc(Br)cc1Cl [Compound 2a, 4-bromo-2-chloro-1-(prop-2-ynyloxy)benzene]
IC50 [1, 5]: 97.7 µg/mL (≈ 398 µM)
inhibition at 40 µg/mL [1]: 29.13 ± 0.12%
inhibition at 100 µg/mL [1]: 51 ± 0.5%
activity against Bacillus subtillus (in words) [2]: inactive
inhibition at 50 µg/mL [2]: 42.4 ± 0.35%
melting point: 29 °C
IC50 [3]: 245 µM
inhibition at 50 µg/mL [3]: 42.5 ± 0.7%
inhibition at 100 µg/mL [3]: 82 ± 0.09%
IC50 [4]: 67.72 µg/mL (≈ 276 µM)
Percentage scavenging activity at 50 ug/ml [4]: 35.67±0.09%
Percentage scavenging activity at 100 ug/ml [4]: 76.09±0.12%

C#CCOc1ccc(Cl)cc1Br [Compound 2b, 2-bromo-4-chloro-1-(prop-2-ynyloxy)benzene]
IC50 [1, 5]: 87.7 µg/mL (≈ 357 µM)
inhibition at 40 µg/mL [1]: 31.47 ± 0.19%
inhibition at 100 µg/mL [1]: 56 ± 0.07%
activity against Bacillus subtillus (in words) [2]: inactive
inhibition at 50 µg/mL [2]: 40.37 ± 0.35%
inhibition at 100 µg/mL ([2]; 100 ug/ml): 39.3 ± 0.36%
IC50 [3]: 264 µM
inhibition at 50 µg/mL [3]: 31.5 ± 0.22%
inhibition at 100 µg/mL [3]: 81.07 ± 0.1%
IC50 [4]: 67.9 µg/mL (≈ 277 µM)
Percentage scavenging activity at 50 ug/ml [4]: 39.67±0.09%
Percentage scavenging activity at 100 ug/ml [4]: 68.44±0.16%

C#CCOc1ccc(Br)cc1Br [Compound 2c, 2,4-dibromo-1-(prop-2-ynyloxy)benzene]
IC50 [1, 5]: 87.7 µg/mL (≈ 302 µM)
inhibition at 40 µg/mL [1]: 31.47 ± 0.2%
inhibition at 100 µg/mL [1]: 56 ± 0.1%
activity against Bacillus subtillus (in words) [2]: batter activity
inhibition at 100 µg/mL ([2]; 100 ug/ml): 55.01 ± 0.25%
IC50 [2, 6]: 83.8 µg/mL (≈ 289 µM)
melting point: 157.95 °C
IC50 [3]: 242 µM
inhibition at 50 µg/mL [3]: 36 ± 0.5%
inhibition at 100 µg/mL [3]: 86.45 ± 0.07%
IC50 [4]: 63.8 µg/mL (≈ 220 µM)
Percentage scavenging activity at 50 ug/ml [4]: 39.67±0.09%
Percentage scavenging activity at 100 ug/ml [4]: 77.03±0.11%

C#CCOc1ccc(C)cc1Br [Compound 2d, 2-bromo-4-methyl-1-(prop-2-ynyloxy)benzene]
IC50 [1, 5]: 95.9 µg/mL (≈ 426 µM)
inhibition at 40 µg/mL [1]: 27.7 ± 0.35%
inhibition at 100 µg/mL [1]: 52 ± 0.607%
activity against Bacillus subtillus (in words) [2]: potent antibacterial
inhibition at 50 µg/mL [2]: 41.5 ± 0.3%
IC50 [2, 6]: 79.9 µg/mL (≈ 355 µM)
IC50 [3]: 298 µM
inhibition at 50 µg/mL [3]: 30.3 ± 0.6%
inhibition at 100 µg/mL [3]: 85.89 ± 0.07%
IC50 [4]: 74.1 µg/mL (≈ 329 µM)
Percentage scavenging activity at 50 ug/ml [4]: 31.33±0.10%
Percentage scavenging activity at 100 ug/ml [4]: 69.95±0.15%

C#CCOc1ccc(F)cc1Br [Compound 2e, 2-bromo-4-fluoro-1-(prop-2-ynyloxy)benzene]
IC50 [1, 5]: 85.1 µg/mL (≈ 372 µM)
inhibition at 40 µg/mL [1]: 31.99 ± 0.07%
inhibition at 100 µg/mL [1]: 58 ± 0.9%
activity against Bacillus subtillus (in words) [2]: inactive
IC50 [3]: 271 µM
inhibition at 50 µg/mL [3]: 40 ± 0.5%
inhibition at 100 µg/mL [3]: 79.59 ± 0.11%
IC50 [4]: 68.8 µg/mL (≈ 300 µM)
Percentage scavenging activity at 50 ug/ml [4]: 33.33±0.1%
Percentage scavenging activity at 100 ug/ml [4]: 77.5±0.11%
